Results published in US20130189200A1, “Oral Composition For Removing Tooth Stain” (REGENETISS, INC., priority 2010, published 2013).

Test: Whitening effect evaluation test (residual ratio of stain on tea-stained dry apatite)
Method: 1 to 2 g of hydroxyapatite (Biogel-HTP, Bio-Rad Laboratories, Inc.) was put into a 50 mL tube, and 20 mL of protein solution (1%, IXOS SCP5000, Nitta Gelatin Inc.) was added thereto, and the mixture was left to stand for 10 to 15 minutes, and then the mixture was separated by centrifugation at 3,000×g for 2 minutes to remove a supernatant. Next, after the centrifugation, 20 mL of stain solution (5 g of instant coffee, two tea bags and two green tea bags were put into 110 mL of water, and the mixture was heated by a microwave oven for 2 minutes. Then the mixture was cooled down at room temperature with shaking for 3 hours to one night. Then the mixture was filtered by a 200 mesh filter. The stain liquid was obtained like this.) was mixed with the precipitated apatite, and the mixture was left to stand for 10 to 15 minutes, and then the mixture was separated by centrifugation (2,500 rpm, 2 minutes) to remove a supernatant. Then, after centrifugation, 20 mL of artificial saliva (20 mM HEPES-KOH pH 7.0, 1.5 mM CaCl2 and 0.9 mM KH2PO4) was added into the precipitated apatite, and the mixture was left to stand for 10 to 15 minutes, and then the mixture was separated by centrifugation (2,500 rpm, 2 minutes). After removal of a supernatant from the mixture, the precipitated apatite was dried.
20 mg of the tea-stained dry apatite is weighed, and 0.3 mL of solution was added thereto, which contains H2O2 at various concentrations and, as appropriate, various phosphate polymers, NaOH and other substances, and then the mixture was left to stand at a certain temperature for a certain time. Then the apatite was precipitated by centrifugation (3,000×g, 15 seconds), and a supernatant was removed from the mixture, and then the apatite was mixed well with 1 mL of water to wash. Further, subsequent washing procedure was repeated four times. After that, the apatite was suspended in 200 μL of water, and the suspension was poured into a well of a 96 well microtiter plate. The 96 well microtiter plate was scanned from the bottom by a scanner (Epson GT8300). The image was inverted to be negative, and brightness analysis was performed by means of imageJ (free software), and then the residual ratio of stain was calculated.

SMILES	Residual ratio of stain (15% carbamide peroxide alone, NaOH 0 N, pH 7.0, 45 °C, 30 min)	Residual ratio of stain (15% carbamide peroxide alone, NaOH 0 N, pH 7.0, 45 °C, 60 min)	Residual ratio of stain (15% carbamide peroxide alone, NaOH 1 N, pH 11.4, 45 °C, 30 min)	Residual ratio of stain (15% carbamide peroxide alone, NaOH 1 N, pH 11.4, 45 °C, 60 min)	Residual ratio of stain (30% carbamide peroxide alone, NaOH 0 N, pH 7.1, 45 °C, 60 min)	Residual ratio of stain (30% carbamide peroxide alone, NaOH 1 N, pH 10.9, 45 °C, 30 min)	Residual ratio of stain (30% carbamide peroxide alone, NaOH 1 N, pH 10.9, 45 °C, 60 min)	Residual ratio of stain (highest whitening effect) (carbamide peroxide only, 30%, alkaline condition, treatment time 60 minutes (so in the source))	Residual ratio of stain (3.5% H2O2, 0% ultraphosphate, pH 7.5, 42 °C, 10 min)	Residual ratio of stain (3.5% H2O2, 0% ultraphosphate, pH 7.5, 42 °C, 30 min)	Residual ratio of stain (3.5% H2O2, 0% ultraphosphate, pH 7.5, 42 °C, 60 min)	Residual ratio of stain (3.5% H2O2, 0% ultraphosphate, pH 7.5, 42 °C, 180 min)	Residual ratio of stain (3.5% H2O2 alone, alkaline (1), pH 11.6, 45 °C, 30 min)	Residual ratio of stain (20% hydrogen peroxide under alkaline condition, 30 minutes treatment)
NC(N)=O.OO [carbamide peroxide]	89.86%	87.73%	27.69%	30.39%	60.96%	19.01%	20.22%	19.01%	–	–	–	–	–	–
OO [hydrogen peroxide]	–	–	–	–	–	–	–	–	98.15%	96.80%	94.89%	88.78%	49.23%	40.08%
